Experimental data: patent publication US20090181115A1, “Method of Screening for Compounds That Alter Skin and/or Hair Pigmentation” (priority 2006, published 2009)
Entries after “also recorded” stand apart in the source; their conditions may differ.

Experiments:
B16 cells [1] = test: Cell viability of B16 cells after siRNA treatment (Wst1 assay); assay type: cell-based, mouse; details: end of each experiment
Experimental: (§1) Media was removed and melanin quantified by OD450. Cell viability measured using Wst1 proliferation reagent (Roche) before lysis using 1% triton ×100. Protein content of each well was determined by BCA assay.
Cell viability and protein content determination post-treatment could help to identify the manner in which SLC24A5 modulates pigment production in B16 melanocytes. […] This conclusion is supported by data obtained for protein content.
• The phenol free DMEM culture media was removed from each well for quantification of secreted melanin. Each well of the culture plate was then rinsed once with Dulbeccos phosphate buffered saline (dPBS) (Sigma-Aldrich, Poole, UK) and replaced with 0.5 ml Wst1 reagent (diluted 1/10 in media) (Roche Diagnostics Ltd, West Sussex, UK). The culture plate was incubated at 37° C., 5% CO2 for 30 minutes. The Wst1 reagent was removed from each well for determination of cell viability and each well was again rinsed with dPBS. 200 μl of 1% w/v Triton X-100 (Sigma-Aldrich, Poole, UK) in dPBS was added to each well of the culture plate. The plate was incubated for 20 minutes at 4° C. on an orbital shaker. Supernatant from each well was removed and centrifuged at 13000 g for 5 minutes to remove cell debris. Soluble fractions were kept for protein quantification.
• The OD^450 of 100 μl fractions (measured in duplicate) of post-incubation Wst1 reagent was measured. […]

B16 cells [2] = test: Melanin synthesis in B16 cells after SLC24A5 siRNA knockdown (OD450 of media); assay type: cell-based, mouse; details: transfected 8 hours, cultured a further 3 days
Experimental: Cells were transfected (lipofectamine 2000) with siRNA duplexes or controls for 8 hours. Cells were cultured for a further 3 days prior to analyses.
as §1
Experiment (each in quadruplicate) reproduced x3 consecutively.
24 h prior to transfection, B16 cells were plated at 25,000 cells/well in a 48-well plate. Cells in quadruplicate wells were transfected with 2 μg/ml Lipofectamine 2000 and 50 nM Stealth™ RNAi duplexes targeting SLC24A5 or scrambled controls (from Invitrogen). […]
Cells were incubated with transfection reagents for 6-8 h, reagents were then removed and replaced with phenol red-free DMEM supplemented with 10% FCS and 4 mM L-glutamine for 72 h. At 72 h, cells were taken for viability and total protein determination and supernatants analysed for melanin production.
• The phenol free DMEM culture media was removed from each well for quantification of secreted melanin. […] Soluble fractions were kept for protein quantification.
• 1 mg synthetic melanin (Sigma-Aldrich, Poole, UK) was dissolved in 50 μl of 100% DMSO. […] This standard was serially diluted (5-fold) in media+FCS to give a standard curve for quantification of melanin in sample preparations (range from 1000 to 8 μg/ml). […]

NCKX5 = test: Western blot of NCKX5 protein 5 days after siRNA mediated knockdown; assay type: cell-based, human; details: 5 days after siRNA knockdown, rabbit anti-NCKX5 pAb (anti C-terminus peptide)
Experimental: Using western blot we have investigated NCKX5 protein expression 5 days after siRNA mediated knockdown (all 5 siRNA duplexes and controls were tested). Western blot was also used to evaluate the expression and processing (maturation) of tyrosinase (tyr) in the same samples. SDS-PAGE (10% PA for NCKX5, 4-12% for tyr, 5 μg protein/lane). A) Western blot for NCKX5: Detection via rabbit anti-NCKX5 pAb (anti C-terminus peptide). B) Western blot for tyr, via goat pAb (Santa Cruz). 1=No treatment, 2=scrambled siRNA control, 3-7=siRNA's 185, 260, 301, 492, 1110. […] These bands are absent in the samples where SLC24A5-specific duplexes were used (lanes 3-7). It is possible that the doublet represents the presence of alternate SLC24A5 splice variants.
(§2) • Cultured Cells (trypsinised off of 6-well culture plates) were lysed on ice for 20 minutes in 1.5 ml eppendorfs using 100 μl per sample of 1% triton X-100 in dPBS containing protease inhibitor cocktail (Sigma-Aldrich, Poole, UK). Cell extracts were centrifuged (10 minutes at 13000 g) to separate melanin and cell debris from the solubilised protein. The protein concentration of each supernatant fraction was determined by BCA assay as described in A).
• 20 μg protein (as determined by BCA assay) was reconstituted into 20 μl of 1×LDS loading buffer (Invitrogen Ltd, Paisley, UK) containing 1× reducing agent (Invitrogen Ltd, Paisley, UK), heated to 40° C. for 30 minutes and loaded onto 10% Novex bis-tris acrylamide gels with 1×MOPS running buffer (Invitrogen Ltd, Paisley, UK). Kaleidoscope molecular weight markers (Bio-Rad Laboratories Ltd, Hemel Hempstead, UK) were run alongside samples for size determinations. Protein was transferred onto PVDF membrane by electrophoresis transfer, using a Bio-Rad mini-cell II trans-blotter and 1× Tris-Glycine transfer buffer (Invitrogen Ltd, Paisley, UK)+15% v/v methanol (100V for 1 hour).
• Membranes containing transferred protein were “blocked” using 2% w/v skimmed milk protein (SMP) in PBS+0.05% tween20 (PBST) for 1 hour with gentle agitation. Peptide affinity purified rabbit polyclonal antibody (raised using a peptide equivalent to the C-terminus of NCKX5-GNNKIRGCGG) was diluted to 0.5 μg/ml using 2% SMP in PBST. The diluted antibody was incubated with the membrane for 2 hours at room temperature. The membrane was then rinsed with PBST (4×5 minutes washes). Peroxidase conjugated anti-rabbit IgG (Jackson ImmunoResearch Laboratories Inc. PA, USA) was diluted 1/4000 using 2% SMP in PBST and was incubated with the membranes for 1 hour. Finally, membranes were washed using 6×5 minute rinses with PBST. SuperSignal Western pico (Perbio Science UK Ltd, Northumberland, UK) chemiluminescence detection reagents was used to probe the membranes for secondary antibody binding as per the manufacturers instructions. Visualisation of results was via a Chemidoc XRS imaging system (Bio-Rad Laboratories Ltd, Hemel Hempstead, UK).

[3] = system: lightly pigmented human melanocytes; test: Quantitative assessment of melanogenesis (melanin content) after siRNA knockdown in human melanocytes; assay type: cell-based; details: replicated x3
Experimental: A decrease in post-treatment melanin content is noted for duplex (492) in lightly pigmented human melanocytes (replicated ×3).
as §2
• To each pellet of melanin+cell debris obtained in section 2), 0.5 ml of diethyl ether:ethanol (1:1 ratio) was added. Eppendorfs were vortexed vigorously for 30 seconds and centrifuged at 13000 g for 5 minutes. The ether layer was carefully removed to waste and a further 0.5 ml was added. The tubes were agitated and centrifuged as before. The liquid phase was again removed and the melanin pellets were allowed to air dry at room temperature for 10 minutes. […] OD^45 0 of each sample was determined and the melanin content of each fraction was calculated from a synthetic melanin standard curve, prepared as described above. In treatment comparisons, results were expressed as μg melanin per μg protein. […]

| Substance | NCKX5 bands of approx. 42 and 44 KDa on western blot (NCKX5) | also measured |
| --- | --- | --- |
| duplex 762: Stealth RNAi duplex targeting murine SLC24A5; sense 5′-CAGAGCUAUGGAGGAGAGAAUUGAA-3′ (antisense GUCUCGAUACCUCCUCUCUUAACUU; Stealth chemically modified RNAi duplex, pattern not given here; one strand is listed 3' to 5') | – | cell viability / toxicity (B16 cells [1]): without affecting viability; melanin synthesis / pigment production (B16 cells [2]; listed as 762): visibly decreased; also recorded: reduce pigment production |
| duplex 260: Stealth siRNA duplex against human SLC24A5, exon 2; 5′ GAGCGCAGAGATGGAGGCATCATAA 3′ (antisense TTATGATGCCTCCATCTCTGCGCTC; Stealth chemically modified siRNA duplex, pattern not given here) | absent | – |
| duplex 301: Stealth siRNA duplex against human SLC24A5, exon 2; 5′ CGTTTACATGTTCATGGCCATATCT 3′ (antisense AGATATGGCCATGAACATGTAAACG; Stealth chemically modified siRNA duplex, pattern not given here) | absent | – |
| duplex 1110: Stealth siRNA duplex against human SLC24A5, exon 7; 5′ CCGCATTTACATATATCCTGGTTTG 3′ (antisense CAAACCAGGATATATGTAAATGCGG; Stealth chemically modified siRNA duplex, pattern not given here) | absent | – |
| duplex 492: Stealth siRNA duplex against human SLC24A5, exon 3 & 4 boundary; 5′ GCACCATCCTTGGATCTGCAATTTA 3′ (antisense TAAATTGCAGATCCAAGGATGGTGC; Stealth chemically modified siRNA duplex, pattern not given here) | absent | post-treatment melanin content [3]: decrease |
| duplex 567: Stealth RNAi duplex targeting murine SLC24A5; sense 5′-CCUCUUCCGAGACUGUGCAGUGUAU-3′ (antisense GGAGAAGGCUCUGACACGUCACAUA; Stealth chemically modified RNAi duplex, pattern not given here; one strand is listed 3' to 5') | – | cell viability / toxicity (B16 cells [1]): significant toxicity; melanin synthesis / pigment production (B16 cells [2]): visibly decreased |
| duplex 185: Stealth siRNA duplex against human SLC24A5, exon 1 & 2 boundary; 5′ AGGGCCACAGGAAATAGCACCCAAT 3′ (antisense ATTGGGTGCTATTTCCTGTGGCCCT; Stealth chemically modified siRNA duplex, pattern not given here) | absent | – |
